Assay results: patent publication EP4038084B1, “LIPOPEPTIDES, PHARMACEUTICAL COMPOSITION, COSMETIC COMPOSITION, AND LIPOPEPTIDES FOR USE AS A DRUG” (priority 2019, dated 2021)
Converted amounts (≈) assume the structure as drawn. “Also recorded” adds a separate entry of the source. Where a SMILES comes first, the peptide text is derived from it. [ ]: non-standard residue; d: D form. The star is where a group is joined. Palmitoyl = CCCCCCCCCCCCCCCC(=O)*; Myristoyl = CCCCCCCCCCCCCC(=O)*; Lauroyl = CCCCCCCCCCCC(=O)*; Dab = NCC[C@H](N)C(=O)O

Tests used:
[1] = test system: Yersinia enterocolitica PCM 2081; settings: LB medium, 24 h at 30°C, OD 600 nm not greater than 0.05
Text: All bacterial strains were obtained from the Polish Collection of Microorganisms (PCM) or the American Type Culture Collection (ATCC). Gram-positive bacteria strains: Staphylococcus aureus ATCC 29213, Staphylococcus epidermidis ATCC 12228, and Enterococcus faecalis ATCC 14506. Gram-negative bacteria strains: Escherichia coli ST2-8624 O157:H7, Pseudomonas aeruginosa PAO1 PCM 499, Klebsiella pneumoniae PCM 1, Salmonella sv. Typhimurium TT622, and Yersinia enterocolitica PCM 2081. All strains were cultured in LB (lysogenic broth) medium.
10 mL of LB medium was inoculated with material from a single colony and cultured at 30°C overnight with shaking. Thereafter, the optical density of the overnight cultures (at 600 nm) was adjusted to 0.05 by dilution in a fresh portion of LB medium. The test compounds were dissolved in water. Serial dilutions of compounds were prepared in LB medium ranging from 5 to 50 µg/mL (final concentrations). The experiment was performed by adding 100 µL of each of the prepared dilutions to 100 µL of the diluted overnight bacterial culture in the wells of a 96-well titration plate. […] Optical density measurements were performed using TECAN Sunrise plate reader. Data were obtained from three independent experiments.

[2] = test system: Staphylococcus aureus ATCC 29213; settings: LB medium, 24 h at 30°C, OD 600 nm not greater than 0.05
[3] = test system: Pseudomonas aeruginosa PAO1 PCM 499; format: cell-based; settings: LB medium, 24 h at 30°C, OD 600 nm not greater than 0.05
Procedure: (§1) Typhimurium TT622, and Yersinia enterocolitica PCM 2081. All strains were cultured in LB (lysogenic broth) medium.
(§2) The test compounds were dissolved in water. […] Data were obtained from three independent experiments.

[4] = test system: Enterococcus faecalis ATCC 14506; format: cell-based; settings: LB medium, 24 h at 30°C, OD 600 nm not greater than 0.05
Procedure: as §1, §2

[5] = test system: Klebsiella pneumoniae PCM 1; format: cell-based; settings: LB medium, 24 h at 30°C, OD 600 nm not greater than 0.05
Procedure: as §1, §2

[6] = test system: Escherichia coli ST2-8624 O157:H7; format: cell-based; settings: LB medium, 24 h at 30°C, OD 600 nm not greater than 0.05
Procedure: as §1, §2

Sheep red blood cells = format: cell-based
Procedure: (§3) Defibrinated sheep or horse blood was washed three times in PBS buffer (137 mM NaCl, 2.7 mM KCl, 8 mM Na2HPO4, 2 mM KH2PO4, pH 7.4) and diluted to obtain 2% (v/v) preparation of red blood cells (RBC). […] The experiment was performed by adding 190 µL of 2% RBC preparation to 10 µL of each of the prepared lipopeptide dilutions in the wells of a 96-well titer plate. As a positive control, Triton X-100 (2% final concentration) was used, instead of test compound preparations, and PBS buffer was used as a negative control. The samples were then incubated for 30 min at 30°C with shaking. After this time, the plate was centrifuged (1200 rpm) and 150 µL of the supernatant was transferred per well to another titration plate and the absorbance at 415 nm was measured using TECAN Sunrise plate reader. Based on the obtained results, the concentration of lipopeptides was determined at which up to 50% of hemolysis occurs in comparison with the positive control (HC50). Data were obtained from three independent experiments. The measurement results are shown in Table 3 and in the form of graphs in Figs. 7 and 8.

Horse red blood cells = format: cell-based
Procedure: as §3

[7] = test system: Staphylococcus epidermidis ATCC 12228; settings: LB medium, 24 h at 30°C, OD 600 nm not greater than 0.05
[8] = test system: Salmonella sv. Typhimurium TT622; experiment: Determination of the minimal inhibitory concentration (MIC); format: cell-based; settings: LB medium, 24 h at 30°C, OD 600 nm not greater than 0.05
Procedure: as §1, §2

[9] = test system: Pseudomonas aeruginosa PAO1 PCM 499; experiment: Lipopeptide effect on the bacterial growth dynamics; format: cell-based; settings: OD 600 nm every 60 min for 6 h after 2 h pre-incubation
Procedure: as §1
(§4) The effect of different concentrations of the test compounds on the bacterial growth was tested on 3 Gram-negative bacterial strains: Klebsiella pneumoniae PCM 1, Pseudomonas aeruginosa PAO1 PCM 499, and Yersinia enterocolitica PCM 2081 and one Gram-positive strain: Staphylococcus aureus ATCC 29213. The experiment was carried out in a similar way to the MIC determination, but in this case the diluted overnight cultures were pre-incubated for 2 h before adding diluted lipopeptide preparations. The bacterial growth was then monitored by measuring the optical density of the culture at 600 nm every 60 min for 6 h. Data were obtained from three independent experiments. The measurement results are shown as graphs in Figs. 1-3.

[10] = test system: Klebsiella pneumoniae PCM 1; experiment: as above; format: cell-based; settings: OD 600 nm every 60 min for 6 h after 2 h pre-incubation
Procedure: as §1, §4

[11] = test system: Yersinia enterocolitica PCM 2081; experiment: as above; format: cell-based; settings: OD 600 nm every 60 min for 6 h after 2 h pre-incubation
Procedure: as §1, §4

Row | SMILES | MIC [1] [µg/mL] | MIC [2] [µg/mL] | MIC [3] | MIC [4] | MIC [5] | MIC [6] | HC50 (Sheep red blood cells) [µg/mL < HC50< 40 µg/mL] | HC50 (Horse red blood cells) [µg/mL < HC50< 40 µg/mL] | MIC [7] [µg/mL] | MIC [8] | effect on the bacterial growth dynamics [9] | effect on the bacterial growth dynamics [10] | effect on the bacterial growth dynamics [11]
1 | CCCCCCCCCCCCCCCC(=O)N[C@H](Cc1ccccc1)C(=O)N[C@@H](CCN)C(=O)N[C@@H](CCN)C(=O)N[C@@H](CC(C)C)C(N)=O [C16-fXXL, CH3(CH2)14C(O)-D-Phe-Dab-Dab-Leu-NH2, reference compound] (Palmitoyl-[dF][Dab][Dab]L-NH2) | 30 (≈ 41.9 µM) | 5 (≈ 6.98 µM) | n.d. (n.d. = not determined, i.e., the MIC value was greater than 50 µg/mL) | n.d. (n.d. = not determined, i.e., the MIC value was greater than 50 µg/mL) | n.d. (n.d. = not determined, i.e., the MIC value was greater than 50 µg/mL) | no activity | 30 | 30 | 5 (≈ 6.98 µM) | n.d. (n.d. = not determined, i.e., the MIC value was greater than 50 µg/mL) | – | – | –
2 | CCCCCCCCCCCC(=O)N[C@H](Cc1ccccc1)C(=O)N[C@@H](CCN)C(=O)N[C@@H](CCN)C(=O)N[C@@H](CC(C)C)C(N)=O [C12-fXXL, CH3(CH2)10C(O)-D-Phe-Dab-Dab-Leu-NH2] (Lauroyl-[dF][Dab][Dab]L-NH2) | 20 (≈ 30.3 µM) | 5 (≈ 7.58 µM) | 20 µg/mL (≈ 30.3 µM) | 30 µg/mL (≈ 45.5 µM) | 20 µg/mL (≈ 30.3 µM) | 50 µg/mL (≈ 75.8 µM) | 30 | 30 | 5 (≈ 7.58 µM) | n.d. (n.d. = not determined, i.e., the MIC value was greater than 50 µg/mL) | slowed down the bacterial growth dynamics at much lower concentrations than that of the C16-fXXL lipopeptide | slowed down the bacterial growth dynamics at much lower concentrations than that of the C16-fXXL lipopeptide | slowed down the bacterial growth dynamics at much lower concentrations than that of the C16-fXXL lipopeptide
3 | CCCCCCCCCCCCCC(=O)N[C@H](Cc1ccccc1)C(=O)N[C@@H](CCN)C(=O)N[C@@H](CCN)C(=O)N[C@@H](CC(C)C)C(N)=O [C14-fXXL, CH3(CH2)12C(O)-D-Phe-Dab-Dab-Leu-NH2] (Myristoyl-[dF][Dab][Dab]L-NH2) | 10 (≈ 14.5 µM) | 5 (≈ 7.27 µM) | 20 µg/mL (≈ 29.1 µM) | 30 µg/mL (≈ 43.6 µM) | 20 µg/mL (≈ 29.1 µM) | n.d. (n.d. = not determined, i.e., the MIC value was greater than 50 µg/mL) | 30 | 30 | 5 (≈ 7.27 µM) | n.d. (n.d. = not determined, i.e., the MIC value was greater than 50 µg/mL) | equally strong effect of slowing down the Gram-negative bacterial growth dynamics; also recorded: slowed down the bacterial growth dynamics at much lower concentrations than that of the C16-fXXL lipopeptide | slowed down the bacterial growth dynamics at much lower concentrations than that of the C16-fXXL lipopeptide | slowed down the bacterial growth dynamics at much lower concentrations than that of the C16-fXXL lipopeptide
